From patent publication US9718770B2, “Substituted thioureas as heat shock protein 70 inhibitors” (Institute of Pharmacology and Toxicology Academy of …, priority 2013, dated 2017) come the findings set out here.

The test system of one test is MDA-MB-453. Description: CDI of example compounds and Lapatinib (ATPlite cell survival). It is filed as cell-based. Also noted: key: CDI = AB/(A×B); <1 synergistic. As to conditions: compound 5 μM + Lapatinib 1 μM, 72 h; natural Lapatinib-resistant human breast cancer cells; CDI<1 synergistic. In a few lines:
(§1)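 BT474, MDA-MB-361, BT/LapR and MDA-MB-453 cells seeded at 5000/well, adhered 24 h, then exposed 72 h at 37 °C to test compound (final 5 μM) alone or with lapatinib (final 1 μM). Survival by ATPlite luminescence vs solvent control; CDI = AB/(A×B) from live-cell RLU.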
(In general: In ATP-based viability assays light output follows the ATP content of the culture.)

The test system of another test is MDA-MB-361. The test is described as above. Particulars: compound 5 μM + Lapatinib 1 μM, 72 h; natural Lapatinib-resistant human breast cancer cells; CDI<1 synergistic. Set-up: key: CDI = AB/(A×B); <1 synergistic. It is filed as cell-based. In short, it runs like this:
as §1

A further test has as its system BT474. The test is described as above. It is filed as cell-based. Also noted: key: CDI = AB/(A×B); <1 synergistic. Particulars: compound 5 μM + Lapatinib 1 μM, 72 h; Lapatinib-sensitive human breast cancer cells; CDI<1 synergistic, <0.7 very significant, >1 antagonistic. In short, it runs like this: as §1
Another test has as its system SK-BR3. The description is as above. The format is cell-based. Set-up: key: CDI = AB/(A×B); <1 synergistic. As to conditions: compound 5 μM + Lapatinib 1 μM, 72 h; Lapatinib-sensitive human breast cancer cells; CDI<1 synergistic. In a few lines: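 SK-BR3 Lapatinib-sensitive human breast cancer cells were plated in 96-well plates at 5000 cell/well, allowed to adhere for 24 h at 37° C., then exposed for 72 h to test compound at 5 μM alone or combined with Lapatinib at 1 μM. Viability came from ATPlite luminescence, and the coefficient of drug interaction was computed as CDI=AB/(A×B)×100%, with CDI<1 indicating synergy.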

Another test has as its target T1, Hsp70 ATPase (Homo sapiens, UniProt P0DMV8).
T1 construct: made in house; host or cells: E. coli
Description: Inhibition of Hsp70 ATPase activity (malachite green). It is filed as biochemical. As to conditions: 200 μM; repeated screening carried out twice; Hsp70/Hsp40, 1 mM ATP; read-out: Inhibitory rate (%) on activity of Hsp70 ATPase. In short, it runs like this:
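Human Hsp70 (DnaK) with its co-chaperone Hsp40 (DnaJ), both produced in E. coli, was mixed in buffer of 100 mM Tris-HCl, 20 mM KCl, 6 mM MgCl2 and 0.017% Triton X-100 (pH 7.4). Test sample or DMSO was added, agitated for 10 min, then held at 37° C. for 30 min. Adding 1 mM ATP started hydrolysis for 3 h at 37° C. Malachite green and 34% sodium citrate were then added, and OD620 gave percent inhibition against DMSO and blank wells.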

Another test relates to BT/Lap^R1.0. Description: CDI of example compounds and Lapatinib (ATPlite cell survival). As to conditions: compound 5 μM + Lapatinib 1 μM, 72 h; secondary Lapatinib-resistant human breast cancer cells; CDI<1 synergistic. It is filed as cell-based. In short, it runs like this:
as §1

In a further test the test system is SK/Lap^R1.0. Described as above. Particulars: compound 5 μM + Lapatinib 1 μM, 72 h; secondary Lapatinib-resistant human breast cancer cells; CDI<1 synergistic. It is filed as cell-based. In a few lines: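 SK/LapR cells, a human breast cancer line with acquired Lapatinib resistance, were seeded in 96-well plates at 5000 cells/well and left to adhere for 24 h at 37° C. They then received test compound at 5 μM, alone or together with 1 μM Lapatinib, for 72 h. ATPlite luminescence measured survival, and CDI = AB/(A×B)×100% was calculated, with CDI<1 meaning synergy.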

T1 sequence (P0DMV8 2-641 limits assumed): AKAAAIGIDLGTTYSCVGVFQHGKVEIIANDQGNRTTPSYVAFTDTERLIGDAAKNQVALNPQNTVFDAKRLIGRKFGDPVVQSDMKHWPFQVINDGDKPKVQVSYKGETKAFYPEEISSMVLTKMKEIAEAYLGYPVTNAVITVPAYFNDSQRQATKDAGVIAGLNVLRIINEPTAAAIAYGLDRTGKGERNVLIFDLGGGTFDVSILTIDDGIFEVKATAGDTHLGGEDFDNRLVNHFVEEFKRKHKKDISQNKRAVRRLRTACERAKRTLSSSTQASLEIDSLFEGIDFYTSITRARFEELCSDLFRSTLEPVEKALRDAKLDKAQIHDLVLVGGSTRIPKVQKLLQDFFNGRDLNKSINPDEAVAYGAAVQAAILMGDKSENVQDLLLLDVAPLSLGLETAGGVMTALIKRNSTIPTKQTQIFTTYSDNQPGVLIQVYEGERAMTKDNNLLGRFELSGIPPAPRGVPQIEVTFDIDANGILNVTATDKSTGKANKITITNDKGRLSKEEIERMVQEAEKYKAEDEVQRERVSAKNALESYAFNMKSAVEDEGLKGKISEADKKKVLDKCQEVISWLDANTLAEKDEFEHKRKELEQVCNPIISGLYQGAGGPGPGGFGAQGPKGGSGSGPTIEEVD

In the case of `COc1cc(/C=C/C(=O)NC(NC(=S)NC2CCCCC2)C(C)(C)C)cc(OC)c1OC` (centres unmarked) [Example 52, (2E)-N-[1-(3-cyclohexylthioureido)-2,2-dimethylpropyl]-3-(3,4,5-trimethoxyphenyl) acrylamide], the “CDI of example compounds and Lapatinib, MDA-MB-453” value (“CDI … MDA-MB-453” for short) in the test with MDA-MB-453 worked out at 1.18. Besides, the “CDI of example compounds and Lapatinib, MDA-MB-361” value (shortened to “CDI … MDA-MB-361”) in the test on MDA-MB-361 is on record as 0.92. Further, the “CDI of example compounds and Lapatinib, BT474” value (“CDI … BT474” below) in the test with BT474 is on record as 0.56. Further, the “CDI of example compounds and Lapatinib, SK-BR3” value (“CDI … SK-BR3” for short) in the test with SK-BR3 was 0.88. Further, at Hsp70 ATPase, the inhibition at 200 µM came to 35.8%. The “CDI of example compounds and Lapatinib, BT/Lap^R1.0” value (shortened to “CDI … BT/Lap^R1.0”) with BT/Lap^R1.0 is 0.86. Moreover, in the test with SK/Lap^R1.0, the “CDI of example compounds and Lapatinib, SK/Lap^R1.0” value (“CDI … SK/Lap^R1.0” for short) turned out to be 1.11.

As to `COc1cc(/C=C/C(=O)NC(NC(=S)NC2CCCCC2)C(C)C)cc(OC)c1OC` (centres unmarked) [Example 53, (2E)-N-[1-(3-cyclohexylthioureido)-2-methylpropyl]-3-(3,4,5-trimethoxyphenyl) acrylamide], the “CDI … MDA-MB-453” value in the test with MDA-MB-453 came to 1.33. Also, the “CDI … MDA-MB-361” value with MDA-MB-361 is 1.19. Also, in the test with BT474, the “CDI … BT474” value amounted to 0.82. For the same compound, the “CDI … SK-BR3” value in the test on SK-BR3 is reported as 0.97. For the same compound, on Hsp70 ATPase, the inhibition at 200 µM stood at 24.4%. In addition, in the test with BT/Lap^R1.0, the “CDI … BT/Lap^R1.0” value is listed as 0.8. Besides, the “CDI … SK/Lap^R1.0” value with SK/Lap^R1.0 came out at 1.23.

Consider `CC(C)CC(NC(=O)/C=C/c1ccccc1)NC(=S)NC1CCCCC1` (centres unmarked) [Example 54, N-[1-(3-cyclohexylthioureido)-3-methylbutyl] cinnamamide], for which the “CDI … MDA-MB-453” value in the test with MDA-MB-453 was 1.2. Further, the “CDI … MDA-MB-361” value with MDA-MB-361 is 0.9. Moreover, the “CDI … BT474” value in the test with BT474 came out at 0.77. For the same compound, the “CDI … SK-BR3” value in the test with SK-BR3 is 1.16. On Hsp70 ATPase, the inhibition at 200 µM is 58.4%. Also, the “CDI … BT/Lap^R1.0” value in the test on BT/Lap^R1.0 is 0.98. Also, the “CDI … SK/Lap^R1.0” value in the test on SK/Lap^R1.0 is 1.14.

Consider `CC(C)C(NC(=O)/C=C/c1ccccc1)NC(=S)NC1CCCCC1` (centres unmarked) [Example 55, N-[1-(3-cyclohexylthioureido)-2-methylpropyl] cinnamamide], for which, in the test with MDA-MB-453, the “CDI … MDA-MB-453” value turned out to be 1.41. Further, the “CDI … MDA-MB-361” value with MDA-MB-361 is 0.94. The “CDI … BT474” value in the test on BT474 turned out to be 0.89. In the test with SK-BR3, the “CDI … SK-BR3” value is reported as 1.2. Besides, the inhibition at 200 µM at Hsp70 ATPase is 25.9%. In the test with BT/Lap^R1.0, the “CDI … BT/Lap^R1.0” value is given as 1.01. Further, the “CDI … SK/Lap^R1.0” value with SK/Lap^R1.0 was 1.8.

In the case of `CC(C)(C)C(NC(=O)/C=C/c1ccccc1)NC(=S)NC1CCCCC1` (centres unmarked) [Example 56, N-[1-(3-cyclohexylthioureido)-2,2-dimethylpropyl] cinnamamide], the “CDI … MDA-MB-453” value with MDA-MB-453 stood at 1.32. Also, the “CDI … MDA-MB-361” value with MDA-MB-361 is recorded as 0.96. The “CDI … BT474” value in the test on BT474 was 0.77. The “CDI … SK-BR3” value in the test on SK-BR3 is 1.19. The inhibition at 200 µM on Hsp70 ATPase amounted to 21.4%. For the same compound, in the test on BT/Lap^R1.0, the “CDI … BT/Lap^R1.0” value worked out at 1.21. The “CDI … SK/Lap^R1.0” value in the test on SK/Lap^R1.0 is recorded as 1.
